Laboratory results: patent US12251458B1, “Anti-aging preparation for skin and application thereof” (South China Normal University, priority 2023, dated 2025)

What was measured:
COL1A2 [1] = assay: COL1A2 expression in mouse skin fibroblasts by fluorescent quantitative PCR; format: cell-based, C57BL/6 mice; conditions: for expression of COL1A2 in the fibroblasts relative to blank control group: mouse skin fibroblasts
From the text: (§1) Experimental method: skin tissues were taken from the backs of newborn C57BL/6 mice, and fibroblasts obtained from mice were isolated and purified. […] The third-generation of fibroblasts were taken for experiments.
Experimental method: the COL1A2 level was detected using fluorescent quantitative polymerase chain reaction (PCR) method. The experiment was divided into two major groups: a blank control group and a sodium 4-[(1E)-2-[[(4-chlorophenyl)methyl]sulfonyl]alkyne]-benzoate treatment group. In the blank control group, the fibroblasts were cultured in a normal medium; and in the sodium 4-[(1E)-2-[[(4-chlorophenyl)methyl]sulfonyl]alkyne]-benzoate treatment group, the fibroblasts were treated with five media containing different concentrations (0.1 μM, […], 1 μM, 3 μM, and 6 μM) of sodium 4-[(1E)-2-[[(4-chlorophenyl)methyl]sulfonyl]alkyne]-benzoate (i.e., normal medium added with sodium 4-[(1E)-2-[[(4-chlorophenyl)methyl]sulfonyl]alkyne]-benzoate at the aforementioned concentrations) for 24 h. The specific process was as follows. The third-generation of fibroblasts was uniformly inoculated into a six-well plate. In the blank control group, the fibroblasts were cultured in the normal medium, and in the sodium 4-[(1E)-2-[[(4-chlorophenyl)methyl]sulfonyl]alkyne]-benzoate treatment group, the fibroblasts were cultured in media containing sodium 4-[(1E)-2-[[(4-chlorophenyl)methyl]sulfonyl]alkyne]-benzoate at the corresponding concentrations. After 24 h of culture, total RNA was extracted from the fibroblasts and subjected to reverse transcription to obtain complementary deoxyribonucleic acid (cDNA), which was then subjected to fluorescent quantitative PCR. After the end of reaction, an amplification curve and a melting curve of the fluorescent quantitative PCR were confirmed, with glyceraldehyde-3-phosphate dehydrogenase (GAPDH) as an internal reference gene. The results were analyzed using the internationally accepted 2^−ΔΔCt method.
Total RNA of fibroblasts was extracted using standard laboratory RNA extraction method and stored at −80° C. for later use. The extracted total RNA of fibroblasts was used as a template to synthesize cDNA by using the standard laboratory method, and the synthesized cDNA was stored at −20° C. for later use.
Fluorescent quantitative PCR system: 10 μL of qPCR SYBR Green Master Mix, 2 μL of 2 μM upstream primer, 2 μL of 2 μM downstream primer, and 1000 ng of cDNA template, a total volume of 20 μL by supplementing with diethyl pyrocarbonate (DEPC)-treated water.
Reaction conditions: pre-denaturation at 95° C. for 5 min, followed by 40 cycles of 10 sec at 95° C., 20 sec at 52.9° C., and 20 sec at 72° C. After the end of reaction, the melting curve was analyzed.
Experimental method: the COL1A2 level was detected using fluorescent quantitative PCR method. The experiment was divided into two major groups: a blank control group and a sodium 4-[(1E)-2-[[(4-chlorophenyl)methyl]sulfonyl]alkyne]-benzoate treatment group. In the blank control group, the fibroblasts were cultured in a normal medium; and in the sodium 4-[(1E)-2-[[(4-chlorophenyl)methyl]sulfonyl]alkyne]-benzoate treatment group, the fibroblasts were cultured in a medium containing 0.5 μM of sodium 4-[(1E)-2-[[(4-chlorophenyl)methyl]sulfonyl]alkyne]-benzoate, with incubation times of 24 h, 48 h, and 72 h. The specific process was as follows. The third-generation of fibroblasts was uniformly inoculated into a six-well plate. In the blank control group, the fibroblasts were cultured in a normal medium, and in the sodium 4-[(1E)-2-[[(4-chlorophenyl)methyl]sulfonyl]alkyne]-benzoate treatment group, the fibroblasts were cultured in a medium containing 0.5 μM of sodium 4-[(1E)-2-[[(4-chlorophenyl)methyl]sulfonyl]alkyne]-benzoate (i.e., normal medium containing 0.5μ M of sodium 4-[(1E)-2-[[(4-chlorophenyl)methyl]sulfonyl]alkyne]-benzoate). […]

dermal thickness in skin = assay: Dermal thickness in treated back skin of mice (HE staining); format: in vivo, C57BL/6 mice
Description: (§2) Sodium 4-[(1E)-2-[[(4-chlorophenyl)methyl]sulfonyl]alkyne]-benzoate was dissolved in water to prepare an aqueous solution of sodium 4-[(1E)-2-[[(4-chlorophenyl)methyl]sulfonyl]alkyne]-benzoate (i.e., an anti-aging preparation for skin). Six healthy C57BL/6 mice aged 6-8 weeks with similar body sizes were selected, and the hair on the backs of the mice was removed gently and harmlessly to expose a similar area of skin on the back of each mouse. The six mice were divided into two groups equally. The same volume of pure water and aqueous solutions containing 0.5 of sodium 4-[(1E)-2-[[(4-chlorophenyl)methyl]sulfonyl]alkyne]-benzoate were applied, respectively, to the hair-removed skin on the backs of the mice once a day for 30 consecutive days.
Experimental method: after continuously applying an aqueous solution containing 0.5 μM of sodium 4-[(1E)-2-[[(4-chlorophenyl)methyl]sulfonyl]alkyne]-benzoate or pure water as a blank control to the backs of mice for 30 days, the mice were euthanized for cutting the skin from the treated areas, and hematoxylin-eosin (HE) staining method was used for detecting the dermal thickness in the skin. Specifically, the tissues were fixed, dehydrated with a sucrose solution, embedded in OCT, sliced, stained with hematoxylin, counterstained blue with tap water, stained with eosin, dehydrated and cleared, and then mounted.

[2] = test system: collagen fiber content in skin; assay: Collagen fiber content in treated back skin of mice (Masson staining); format: in vivo, C57BL/6 mice
Description: as §2
Experimental method: after continuously applying an aqueous solution containing 0.5 μM of sodium 4-[(1E)-2-[[(4-chlorophenyl)methyl]sulfonyl]alkyne]-benzoate or pure water as a blank control to the backs of mice for 30 days, the mice were euthanized for cutting the skin from the treated areas, and the Masson staining method was used for detecting the collagen fiber content in the skin. […]

COL1A2 [3] = assay: COL1A2 mRNA level in treated back skin of mice (fluorescent quantitative PCR); format: in vivo, C57BL/6 mice; conditions: aqueous solution 0.5 μM applied to hair-removed back skin once a day for 30 days, P=0.0178
Description: as §2, with “The same volume of pure water and aqueous solutions containing 0.5 of sodium 4-[(1E)-2-[[(4-chlorophenyl)methyl]sulfonyl]alkyne]-benzoate were applied, respectively, to the hair-removed skin on the backs of the mice once a day for 30 consecutive days.” left out
(§3) Experimental method: after continuously applying the same volume of aqueous solutions containing 0.5 μM of sodium 4-[(1E)-2-[[(4-chlorophenyl)methyl]sulfonyl]alkyne]-benzoate or pure water as a blank control to the backs of mice for 30 days, the mice were euthanized for cutting the skin from the treated areas. The Westernblot method was employed to detect the protein level of COL1A2, and the fluorescent quantitative PCR method was employed to detect the mRNA level of COL1A2.
Fluorescence quantitative PCR experiment was performed specifically as follows. Total RNA was extracted from skin tissues, and subjected to reverse transcription to obtain cDNA, which was then subjected to fluorescence quantitative PCR. After the end of reaction, an amplification curve and a melting curve of the fluorescent quantitative PCR were confirmed, with GAPDH as an internal reference gene. […]

COL1A2 [4] = assay: COL1A2 protein level in treated back skin of mice (Westernblot); format: in vivo, C57BL/6 mice; conditions: aqueous solution 0.5 μM applied to hair-removed back skin once a day for 30 days, P=0.0378
Description: as §2, with “The same volume of pure water and aqueous solutions containing 0.5 of sodium 4-[(1E)-2-[[(4-chlorophenyl)methyl]sulfonyl]alkyne]-benzoate were applied, respectively, to the hair-removed skin on the backs of the mice once a day for 30 consecutive days.” left out
as §3
The specific process for the Westernblot experiment was as follows. […] After fluorescent secondary antibodies were incubated, the samples were visualized using an infrared fluorescence scanning imaging system. […]

fibroblasts = assay: Cell viability of fibroblasts after administration (status photographed under a microscope); format: cell-based, C57BL/6 mice; conditions: 0.5 μM, 24 h and 48 h
Description: as §1
Experimental method: the third-generation of fibroblasts was uniformly inoculated into a six-well plate. In the blank control group, the fibroblasts were cultured in a normal medium, and in the sodium 4-[(1E)-2-[[(4-chlorophenyl)methyl]sulfonyl]alkyne]-benzoate treatment group, the fibroblasts were cultured in a medium containing 0.5 μM of sodium 4-[(1E)-2-[[(4-chlorophenyl)methyl]sulfonyl]alkyne]-benzoate (i.e., normal medium containing 0.5 μM of sodium 4-[(1E)-2-[[(4-chlorophenyl)methyl]sulfonyl]alkyne]-benzoate). After culturing for 24 h and 48 h, respectively, the status of fibroblasts was photographed under a microscope.

MMP-13 = MMP-13 mRNA level in treated back skin of mice (fluorescent quantitative PCR); format: in vivo, C57BL/6 mice; conditions: aqueous solution 0.5 M (so in the source) applied to hair-removed back skin once a day for 30 days, P=0.0171
Description: as §2, with “The same volume of pure water and aqueous solutions containing 0.5 of sodium 4-[(1E)-2-[[(4-chlorophenyl)methyl]sulfonyl]alkyne]-benzoate were applied, respectively, to the hair-removed skin on the backs of the mice once a day for 30 consecutive days.” left out
Experimental method: after continuously applying an aqueous solution containing 0.5 M of sodium 4-[(1E)-2-[[(4-chlorophenyl)methyl]sulfonyl]alkyne]-benzoate or pure water as a blank control to the backs of mice for 30 days, the mice were euthanized for cutting the skin from the treated areas, and the fluorescent quantitative PCR method was used for detecting the mRNA level of MMP-13 in skin tissue. Specifically, total RNA was extracted from skin tissues, and subjected to reverse transcription to obtain cDNA, which was then subjected to fluorescence quantitative PCR. After the end of reaction, an amplification curve and a melting curve of the fluorescent quantitative PCR were confirmed, with GAPDH as an internal reference gene. The results were analyzed using the internationally accepted 2^−ΔΔCt method. […]

[5] = same effect verification as Examples 1 and 2

Compound | increasing the expression of type I collagen (COL1A2) in cells, compared with the sodium salt (COL1A2 [1]; [5]) | increasing the dermal thickness in the skin, compared with the sodium salt (dermal thickness in skin; [5]) | increasing the collagen fiber content in the skin, compared with the sodium salt [2, 5] | mRNA level of COL1A2 in skin, increase compared to pure water blank control group (COL1A2 [3]) | expression of COL1A2 in the fibroblasts relative to blank control group (COL1A2 [1]; 0.5 μM, 24 h, P=0.0003) | expression of COL1A2 in fibroblasts with extension of incubation time (COL1A2 [1]; 0.5 μM, incubation time from 24 h to 72 h) | expression of COL1A2 in fibroblasts compared to the blank control group (COL1A2 [1]; 0.5 μM, incubation time of 72 h) | expression of COL1A2 in the fibroblasts relative to blank control group (COL1A2 [1]; 1 μM, 24 h, P<0.0001) | expression of COL1A2 in the fibroblasts (COL1A2 [1]; any other concentrations (0.1 μM, 3 μM, 6 μM), 24 h) | protein level of COL1A2 in skin, increase compared to pure water blank control group (COL1A2 [4]) | dermal thickness in the skin, increase compared to pure water blank control group (dermal thickness in skin; aqueous solution 0.5 μM applied to hair-removed back skin once a day for 30 days, P=0.0004) | viability / status of fibroblasts (fibroblasts) | collagen fiber content in the skin, increase compared to pure water blank control group ([2]; aqueous solution 0.5 μM applied to hair-removed back skin once a day for 30 days, P=0.0010) | mRNA level of MMP-13 in skin, decrease compared to pure water blank control group (MMP-13)
O=C(O)c1ccc(/C=C/S(=O)(=O)Cc2ccc(Cl)cc2)cc1 | equivalent effects | equivalent effects | equivalent effects | – | – | – | – | – | – | – | – | – | – | –
O=C([O-])c1ccc(/C=C/S(=O)(=O)Cc2ccc(Cl)cc2)cc1.[Na+] | – | – | – | 2.681 times | 1.613 times | decreases | no difference | 1.173 times | cannot increase the expression of COL1A2 | 4.024 times | 2.9101 times | no adverse effects on viability of fibroblasts | 3.3904 times | 0.5124 times
